Here are results for seven molecules from ChEMBL document CHEMBL1148419, “Novel P4 truncated tripeptidyl alpha-ketoamides as HCV protease inhibitors” (Bioorg Med Chem Lett, 2004).

Molecules are shown by their SMILES. Activity calls are given as the source filed them. The rule behind the calls is not given here.

In one test the test system is Hepatitis C virus NS3 protease (Hepatitis C virus). Briefly: Inhibitory activity against Protease using replicon assay in rats at 50 uM concentration. The settings on record: Rattus norvegicus.
Regarding `CCCC(NC(=O)[C@@H]1[C@H]2CCC(F)(F)[C@H]2CN1C(=O)[C@@H](NC(=O)[C@H](O)C(C)C)C(C)C)C(=O)C(=O)NC1CC1` (some centres not stated), the inhibition result was “inactive”.
The molecule `CCCC(NC(=O)[C@@H]1[C@H]2CCC[C@H]2CN1C(=O)[C@@H](NC(=O)OC(C)C)C(C)C)C(=O)C(=O)N[C@@H](C)c1ccccc1` (some centres not stated) gave an inhibition of 7%.
On the same count and under the same terms, as for `CCCC(NC(=O)[C@@H]1[C@H]2CCC(F)(F)[C@H]2CN1C(=O)[C@@H](NC(=O)OC(C)C)C(C)C)C(=O)C(=O)N[C@@H](C)c1ccccc1` (some centres not stated), the figure is 22%; as for `CCCC(NC(=O)[C@@H]1[C@H]2CCC(F)(F)[C@H]2CN1C(=O)[C@@H](NC(=O)OC(C)C)C(C)(C)C)C(=O)C(=O)N[C@@H](C)c1ccccc1` (some centres not stated), 51%.

The test system is the same in a further test. Briefly: Inhibitory activity against Protease using replicon assay in rats at 50 uM concentration; Not active. The settings on record: Rattus norvegicus.
For `CCCC(NC(=O)[C@@H]1[C@H]2CCC[C@H]2CN1C(=O)[C@@H](NC(=O)[C@H](O)C(C)C)C(C)C)C(=O)C(=O)Nc1ccccc1` (some centres not stated), the inhibition entry is “inactive”.
Take `CCCC(NC(=O)[C@@H]1[C@H]2CCC[C@H]2CN1C(=O)[C@@H](NC(=O)[C@H](O)C(C)C)C(C)C)C(=O)C(=O)NC1CC1` (some centres not stated): the inhibition result is “inactive”.
Turning to `CCCC(NC(=O)[C@@H]1[C@H]2CCC[C@H]2CN1C(=O)[C@@H](NC(=O)OC(C)C)C(C)(C)C)C(=O)C(=O)Nc1ccccc1` (some centres not stated), the inhibition result is “inactive”.
